From ChEMBL document CHEMBL4041509, “Structure-activity relationship study of novel 2-aminobenzofuran derivatives as P-glycoprotein inhibitors” (Eur J Med Chem, 2017)

What was measured:
Assay type in all cases: cell-based
Details in all cases: 0.5 h
[1] = target: T1, ATP-dependent translocase ABCB1 (Homo sapiens, UniProt P08183); test: Inhibition of ABCB1 (unknown origin) expressed in Flp-In-293 cells assessed as increase in calcein-AM uptake at 2.5 uM preincubated for 30 mins followed by calcein-AM addition measured after 30 mins by fluorescence spectrometric method relative to control
T1 sequence (P08183 whole entry): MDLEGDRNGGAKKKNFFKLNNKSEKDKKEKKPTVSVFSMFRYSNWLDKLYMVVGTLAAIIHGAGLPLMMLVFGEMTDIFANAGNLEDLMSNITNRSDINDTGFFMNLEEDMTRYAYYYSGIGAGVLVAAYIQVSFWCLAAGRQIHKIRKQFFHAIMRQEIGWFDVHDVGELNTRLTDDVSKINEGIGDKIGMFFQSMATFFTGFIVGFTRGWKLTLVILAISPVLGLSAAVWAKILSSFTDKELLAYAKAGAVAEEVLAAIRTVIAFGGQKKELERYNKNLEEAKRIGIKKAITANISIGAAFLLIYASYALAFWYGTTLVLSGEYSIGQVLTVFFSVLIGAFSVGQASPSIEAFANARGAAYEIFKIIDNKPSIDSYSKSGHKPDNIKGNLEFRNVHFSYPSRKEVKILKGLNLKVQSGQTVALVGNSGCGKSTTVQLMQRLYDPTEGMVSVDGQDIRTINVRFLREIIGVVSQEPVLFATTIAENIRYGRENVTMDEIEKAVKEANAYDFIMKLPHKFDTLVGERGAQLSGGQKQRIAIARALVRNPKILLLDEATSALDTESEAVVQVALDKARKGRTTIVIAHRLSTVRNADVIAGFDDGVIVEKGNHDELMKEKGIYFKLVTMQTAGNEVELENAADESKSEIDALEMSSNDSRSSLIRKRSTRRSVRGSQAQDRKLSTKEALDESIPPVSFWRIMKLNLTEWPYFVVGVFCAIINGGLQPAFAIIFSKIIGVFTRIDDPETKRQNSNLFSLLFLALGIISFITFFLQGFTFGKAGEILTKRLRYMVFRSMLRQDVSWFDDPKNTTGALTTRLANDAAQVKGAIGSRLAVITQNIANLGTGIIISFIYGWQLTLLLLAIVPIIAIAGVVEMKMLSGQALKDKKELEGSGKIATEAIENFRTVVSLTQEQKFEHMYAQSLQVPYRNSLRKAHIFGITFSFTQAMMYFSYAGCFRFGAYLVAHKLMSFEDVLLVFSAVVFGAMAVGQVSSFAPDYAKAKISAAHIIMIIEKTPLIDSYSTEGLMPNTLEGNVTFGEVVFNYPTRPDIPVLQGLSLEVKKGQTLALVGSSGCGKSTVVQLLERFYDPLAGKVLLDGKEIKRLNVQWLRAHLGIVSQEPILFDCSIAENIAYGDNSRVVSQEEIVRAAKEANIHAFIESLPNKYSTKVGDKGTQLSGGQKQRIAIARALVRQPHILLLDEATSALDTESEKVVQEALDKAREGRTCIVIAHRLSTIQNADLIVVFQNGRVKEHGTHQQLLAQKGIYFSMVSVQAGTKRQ

[2] = target: T1, ATP-dependent translocase ABCB1; test: Inhibition of ABCB1 (unknown origin) expressed in Flp-In-293 cells assessed as increase in calcein-AM uptake at 5 uM preincubated for 30 mins followed by calcein-AM addition measured after 30 mins by fluorescence spectrometric method relative to control
[3] = target: T1, ATP-dependent translocase ABCB1; test: Inhibition of ABCB1 (unknown origin) expressed in Flp-In-293 cells assessed as increase in calcein-AM uptake at 10 uM preincubated for 30 mins followed by calcein-AM addition measured after 30 mins by fluorescence spectrometric method relative to control

Row | SMILES | fold change (FC) [1] | fold change (FC) [2] | fold change (FC) [3]
1 | CC(=O)Oc1cc(-c2ccc3c(c2)OCO3)cc2oc(N)c(-c3cccs3)c12 | 0.96 | 0.86 | –
2 | COc1ccc(-c2cc(OCc3ccc([N+](=O)[O-])cc3)c3c(-c4cccs4)c(N)oc3c2)cc1 | – | 0.78 | 0.85
3 | CC(=O)Oc1cccc2oc(N)c(-c3cccs3)c12 | 1.05 | 1.12 | –
4 | CC(=O)Oc1cc(-c2ccccc2)cc2oc(N)c(-c3cccs3)c12 | 0.95 | 0.98 | –
5 | COc1ccc(-c2cc(OCc3ccccc3)c3c(-c4cccs4)c(N)oc3c2)cc1 | – | 0.81 | 0.85
6 | COc1ccc(-c2cc(OCc3ccncc3)c3c(-c4cccs4)c(N)oc3c2)cc1OC | – | 5.93 | 7.79
7 | COc1ccc(-c2cc(OC(C)=O)c3c(-c4cccs4)c(N)oc3c2)cc1OC | 3.75 | 4.35 | –
8 | COc1ccc(-c2cc(OCc3cccc(OC)c3)c3c(-c4cccs4)c(N)oc3c2)cc1 | – | 0.78 | 0.71
9 | COc1ccc(-c2cc(OCc3cccnc3)c3c(-c4cccs4)c(N)oc3c2)cc1 | – | 3.68 | 4.72
10 | CCN(CC)CCOc1cc(-c2ccc(OC)cc2)cc2oc(N)c(-c3cccs3)c12 | – | 8.85 | 10.14
11 | COc1ccc(-c2cc(OC(C)=O)c3c(-c4ccc(OC)cc4)c(N)oc3c2)cc1 | 1.17 | 1.75 | –
12 | COc1ccc(-c2cc(O)c3c(-c4cccs4)c(N)oc3c2)cc1OC | – | 1.15 | –
13 | COc1ccc(-c2cc(OC(C)=O)c3c(-c4cccnc4)c(N)oc3c2)cc1 | 0.89 | 1.13 | –
14 | COc1ccc(-c2cc(OCCCN3CCCCC3)c3c(-c4cccs4)c(N)oc3c2)cc1OC | – | 4.55 | –
15 | COc1ccc(-c2cc(O)c3c(-c4cccs4)c(N)oc3c2)cc1 | 1.46 | 1.62 | –
16 | COc1ccc(-c2cc(OC(C)=O)c3c(-c4ccccc4OC)c(N)oc3c2)cc1 | 1.32 | 1.49 | –
17 | COc1ccc(-c2cc(OC(C)=O)c3c(-c4ccc5c(c4)OCO5)c(N)oc3c2)cc1 | 1.3 | 1.48 | –
18 | COc1ccc(-c2cc(OCCN3CCCCC3)c3c(-c4cccs4)c(N)oc3c2)cc1OC | – | 6.06 | –

Other lines, results leading:

Row | fold change (FC) [1] | fold change (FC) [2] | fold change (FC) [3] | SMILES
19 | 1.52 | 2.2 | – | COc1ccc(-c2cc(OC(C)=O)c3c(-c4ccc(Cl)cc4)c(N)oc3c2)cc1
20 | 1.82 | 1.83 | – | COc1ccc(-c2cc(OC(C)=O)c3c(-c4ccc(Cl)c(Cl)c4)c(N)oc3c2)cc1
21 | 1.35 | 1.61 | – | COc1ccc(-c2cc(OC(C)=O)c3c(-c4c(F)cccc4Cl)c(N)oc3c2)cc1
22 | 0.94 | 1.26 | – | COc1ccc(-c2cc(OC(C)=O)c3c(-c4ccc(F)cc4)c(N)oc3c2)cc1
23 | 1.7 | 2.27 | – | COc1ccc(-c2cc(OC(C)=O)c3c(-c4ccccc4)c(N)oc3c2)cc1
24 | 1.3 | 1.59 | – | COc1ccc(-c2cc(OC(C)=O)c3c(-c4ccccc4Cl)c(N)oc3c2)cc1
25 | 1.34 | 1.81 | – | COc1ccc(-c2cc(OC(C)=O)c3c(-c4c(Cl)cccc4Cl)c(N)oc3c2)cc1
26 | 1.85 | 2.45 | – | COc1ccc(-c2cc(OC(C)=O)c3c(-c4cccc(Cl)c4)c(N)oc3c2)cc1
27 | 1.45 | 1.86 | – | COc1ccc(-c2cc(OC(C)=O)c3c(-c4ccc(C)cc4)c(N)oc3c2)cc1
28 | 1.31 | 1.82 | – | COc1ccc(-c2cc(OC(C)=O)c3c(-c4ccccc4F)c(N)oc3c2)cc1
29 | 1.9 | 2.2 | – | COc1ccc(-c2cc(OC(C)=O)c3c(-c4cccs4)c(N)oc3c2)cc1
